Measured values as given in patent US9221822B2, “Thiazolopyrimidine modulators as immunosuppressive agents” (Katholieke Universiteit Leuven, K.U.Leuven R&D, priority 2009, dated 2015).

System: Human peripheral blood mononuclear cells (PBMCs) as Responder cells, RPMI 1788 Stimulator cells
Test: Mixed Lymphocyte Reaction (MLR) test
Assay type: cell-based
Details: Homo sapiens, RPMI-1788, lowest concentration giving 50% inhibition of the MLR; 6 days coculture, 3H-thymidine incorporation
How it was run: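 Human PBMC responders (0.12×10^6) were cocultured 6 days with mitomycin C-treated RPMI 1788 stimulators (0.045×10^6) and compound in RPMI 1640 with 10% FCS, in triplicate. A ^3H-thymidine pulse on day 5, harvested 18 h later, measured proliferation (cpm), converted to % inhibition versus a compound-free MLR.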

Row | Compound | IC50
1 | Cc1cccc(NC(=O)N2CCN(c3nc(N)nc4oc(CCc5ccc(F)cc5)nc34)CC2)c1 [Example 196, 5-amino-2-[2-(4-fluorophenyl)ethyl]-7-(4-m-tolylcarbamoylpiperazin-1-yl)-oxazolo[5,4-d]pyrimidine] | 3970 nM
2 | Nc1nc(N2CCN(C(=O)COc3ccc(Cl)cc3)CC2)c2nc(-c3ccc(Cl)cc3)sc2n1 [Example 123, 5-amino-7-[4-(4-chlorophenoxyacetyl)piperazin-1-yl]-2-(4-chlorophenyl)thiazolo[5,4-d]pyrimidine] | 260 nM
3 | CCOc1nc(N)nc2sc(Cc3ccc(F)cc3)nc12 [Example 31, 7-ethoxy-2-(4-fluorobenzyl)thiazolo[5,4-d]pyrimidin-5-amine] | 9700 nM
4 | Nc1nc(N2CCN(CC(=O)N3CCOCC3)CC2)c2nc(-c3ccc(F)cc3)[nH]c2n1 [Example 411, 2-(4-(2-amino-8-(4-fluorophenyl)-9H-purin-6-yl)piperazin-1-yl)-1-morpholinoethanone] | > 10000 nM
5 | Nc1nc(N2CCN(C(=O)COc3ccccc3)CC2)c2nc(-c3ccc(F)cc3)[nH]c2n1 [Example 401, 1-(4-(2-amino-8-(4-fluorophenyl)-9H-purin-6-yl)piperazin-1-yl)-2-phenoxyethanone] | 1090 nM
6 | COc1ccc(OCC(=O)N2CCN(c3nc(N)nc4sc(CCCCc5ccc(F)cc5)nc34)CC2)cc1 [Example 293, 1-(4-(5-amino-2-(4-(4-fluorophenyl)butyl)thiazolo[5,4-d]pyrimidin-7-yl)piperazin-1-yl)-2-(4-methoxyphenoxy)ethanone] | 930 nM
7 | CC(C)(C)c1nc2c(N3CCN(C(=O)COc4ccc(Cl)cc4)CC3)nc(N)nc2[nH]1 [Example 399, 1-(4-(2-amino-8-tert-butyl-9H-purin-6-yl)piperazin-1-yl)-2-(4-chlorophenoxy)ethanone] | 6310 nM
8 | CCCSc1nc2c(N3CCN(C(=O)COc4ccc(Cl)cc4)CC3)nc(N)nc2[nH]1 [Example 425, 1-(4-(2-amino-8-(propylthio)-9H-purin-6-yl)piperazin-1-yl)-2-(4-chlorophenoxy)ethanone] | 1020 nM
9 | Nc1nc(N2CCN(CC(=O)Nc3nccs3)CC2)c2nc(-c3ccc(F)cc3)[nH]c2n1 [Example 417, 2-(4-(2-amino-8-(4-fluorophenyl)-9H-purin-6-yl)piperazin-1-yl)-N-(thiazol-2-yl)acetamide] | > 10000 nM
10 | Nc1nc(N2CCN(CCOc3ccccc3)CC2)c2cc(-c3ccccc3)sc2n1 [Example 337, 4-(4-(2-phenoxyethyl)piperazin-1-yl)-6-phenylthieno[2,3-d]pyrimidin-2-amine] | 9640 nM
11 | Nc1nc(N2CCN(C(=O)COc3ccc(Cl)cc3)CC2)c2nc(-c3ccc(F)cc3)n(Cc3ccccc3)c2n1 [Example 431, 1-(4-(2-amino-9-benzyl-8-(4-fluorophenyl)-9H-purin-6-yl)piperazin-1-yl)-2-(4-chlorophenoxy)ethanone] | > 10000 nM
12 | Nc1nc(N2CCN(C(=O)COc3ccc(Cl)cc3)CC2)c2nc(C3CC3)oc2n1 [Example 185, 5-amino-2-cyclopropyl-7-[4-(4-chlorophenoxyacetyl)piperazin-1-yl]-oxazolo[5,4-d]pyrimidine] | 1760 nM
13 | Nc1nc(N2CCN(C(=O)COc3ccccc3)CC2)c2cc(-c3ccccc3)sc2n1 [Example 332, 1-(4-(2-amino-6-phenylthieno[2,3-d]pyrimidin-4-yl)piperazin-1-yl)-2-phenoxyethanone] | 780 nM
14 | O=C(O)c1nc(N2CCN(C(=O)COc3ccc(Cl)cc3)CC2)c2cc(-c3ccc(F)cc3)sc2n1 [Example 357, 4-(4-(2-(4-chlorophenoxy)acetyl)piperazin-1-yl)-6-(4-fluorophenyl)thieno[2,3-d]pyrimidine-2-carboxylic acid] | > 10000 nM
15 | Nc1nc(N2CCN(C(=O)COc3ccc(Br)cc3)CC2)c2nc(Cc3ccc(F)cc3)sc2n1 [Example 231, 1-(4-(5-amino-2-(4-fluorobenzyl)thiazolo[5,4-d]pyrimidin-7-yl)piperazin-1-yl)-2-(4-bromophenoxy)ethanone] | 550 nM
16 | Nc1nc(N2CCN(C(=O)CCc3ccc(F)cc3)CC2)c2nc(-c3ccc(F)cc3)sc2n1 [Example 236, 1-(4-(5-amino-2-(4-fluorophenyl)thiazolo[5,4-d]pyrimidin-7-yl)piperazin-1-yl)-3-(4-fluorophenyl)propan-1-one] | 890 nM
17 | Nc1nc(N2CCN(C(=O)COc3ccc(Br)cc3)CC2)c2nc(-c3ccc(F)cc3)sc2n1 [Example 235, 1-(4-(5-amino-2-(4-fluorophenyl)thiazolo[5,4-d]pyrimidin-7-yl)piperazin-1-yl)-2-(4-bromophenoxy)ethanone] | 460 nM
18 | Nc1nc(N2CCN(C(=O)COc3ccc(Br)cc3)CC2)c2nc(CCc3ccc(F)cc3)sc2n1 [Example 52, 1-(4-(5-amino-2-(4-fluorophenethyl)thiazolo[5,4-d]pyrimidin-7-yl)piperazin-1-yl)-2-(4-bromophenoxy)ethanone] | > 10000 nM

Row | Compound | IC50
19 | Nc1nc(N2CCN(CC(=O)Nc3ccccn3)CC2)c2nc(-c3ccc(F)cc3)[nH]c2n1 [Example 416, 2-(4-(2-amino-8-(4-fluorophenyl)-9H-purin-6-yl)piperazin-1-yl)-N-(pyridin-2-yl)acetamide] | 5760 nM
20 | COc1ccc(OCC(=O)N2CCN(c3nc(N)nc4sc(CCc5ccc(OC)c(OC)c5)nc34)CC2)cc1 [Example 257, 1-(4-(5-amino-2-(3,4-dimethoxyphenethyl)thiazolo[5,4-d]pyrimidin-7-yl)piperazin-1-yl)-2-(4-methoxyphenoxy)ethanone] | 1140 nM
21 | Nc1nc(N2CCN(C(=O)COc3ccc(F)cc3)CC2)c2nc(-c3ccco3)sc2n1 [Example 209, 1-(4-(5-amino-2-(furan-2-yl)thiazolo[5,4-d]pyrimidin-7-yl)piperazin-1-yl)-2-(4-fluorophenoxy)ethanone] | 55 nM
22 | CC(C)(Oc1ccc(Cl)cc1)C(=O)N1CCN(c2nc(N)nc3sc(-c4cccnc4)nc23)CC1 [Example 274, 1-(4-(5-amino-2-(pyridin-3-yl)thiazolo[5,4-d]pyrimidin-7-yl)piperazin-1-yl)-2-(4-chlorophenoxy)-2-methylpropan-1-one] | > 10000 nM
23 | COc1cccc(C(=O)N2CCN(c3nc(N)nc4[nH]c(-c5ccc(F)cc5)nc34)CC2)c1 [Example 402, (4-(2-amino-8-(4-fluorophenyl)-9H-purin-6-yl)piperazin-1-yl)(3-methoxyphenyl)methanone] | > 10000 nM
24 | Nc1nc(N2CCN(C(=O)COc3ccc(Cl)cc3)CC2)c2nc(-c3ccc(Br)cc3)[nH]c2n1 [Example 391, 1-(4-(2-amino-8-(4-bromophenyl)-9H-purin-6-yl)piperazin-1-yl)-2-(4-chlorophenoxy)ethanone] | 260 nM
25 | Nc1nc(N2CCN(CC(=O)NCCc3ccccc3)CC2)c2nc(CCc3ccc(F)cc3)sc2n1 [Example 141, 5-amino-2-[2-(4-fluorophenyl)ethyl]-7-(4-(phenethylcarbamoyl-methyl)piperazin-1-yl)-thiazolo[5,4-d]pyrimidine] | 1410 nM
26 | Nc1nc(N2CCN(C(=O)COc3ccc(Cl)cc3)CC2)c2nc(C(c3ccc(F)cc3)C3CCCC3)sc2n1 (centres unmarked) [Example 151, 5-amino-2-[cyclopentyl-(4-fluorophenyl)methyl]-7-(4-[2-(4-chlorophenoxy)acetyl]piperazin-1-yl)thiazolo[5,4-d]pyrimidine] | > 10000 nM
27 | Cc1cccc(N2CCN(c3nc(N)nc4sc(-c5ccc(F)cc5)nc34)CC2)c1 [Example 35, 2-(4-fluorophenyl)-7-(4-m-tolylpiperazin-1-yl)-thiazolo[5,4-d]pyrimidin-5-amine] | > 10000 nM
28 | Nc1nc(N2CCN(C(=O)CCc3ccccc3)CC2)c2nc(-c3ccc(F)cc3)[nH]c2n1 [Example 438, 1-(4-(2-amino-8-(4-fluorophenyl)-9H-purin-6-yl)piperazin-1-yl)-3-phenylpropan-1-one] | 2580 nM
29 | Nc1nc(N2CCN(CCOc3ccccc3)CC2)c2nc(CCc3ccc(F)cc3)oc2n1 [Example 197, 5-amino-2-[2-(4-fluorophenyl)ethyl]-7-(4-(2-phenoxyethyl)piperazin-1-yl)-oxazolo[5,4-d]pyrimidine] | 1950 nM
30 | Nc1nc(N2CCN(C(=O)COc3ccc(O)cc3)CC2)c2nc(CCc3ccc(F)cc3)sc2n1 [Example 224, 1-(4-(5-amino-2-(4-fluorophenethyl)thiazolo[5,4-d]pyrimidin-7-yl)piperazin-1-yl)-2-(4-hydroxyphenoxy)ethanone] | 1100 nM
31 | Nc1nc(N2CCN(C(=O)COc3ccc(Cl)cc3)CC2)c2nc(-c3ccccc3)sc2n1 [Example 215, 1-(4-(5-amino-2-phenylthiazolo[5,4-d]pyrimidin-7-yl)piperazin-1-yl)-2-(4-chlorophenoxy)ethanone] | 116 nM
32 | COCc1nc2c(N3CCN(C(=O)COc4ccc(Cl)cc4)CC3)nc(N)nc2o1 [Example 186, 5-amino-7-[4-(4-chlorophenoxyacetyl)piperazin-1-yl]-2-methoxylmethyloxazolo[5,4-d]pyrimidine] | 1830 nM
33 | Nc1nc(N2CCN(C(=O)COc3ccc(Cl)cc3)CC2)c2nc(CCc3ccc(Br)cc3)sc2n1 [Example 299, 1-(4-(5-amino-2-(4-bromophenethyl)thiazolo[5,4-d]pyrimidin-7-yl)piperazin-1-yl)-2-(4-chlorophenoxy)ethanone] | 3110 nM
34 | Nc1nc(N2CCN(C(=O)COc3ccc(Cl)cc3)CC2)c2nc(CCc3ccccc3)oc2n1 [Example 189, 5-amino-2-(2-phenylethyl)-7-[4-(4-chlorophenoxyacetyl)piperazin-1-yl]oxazolo[5,4-d]pyrimidine] | 5530 nM
35 | Nc1nc(N2CCCN(C(=O)COc3ccc(Cl)cc3)CC2)c2nc(-c3ccc(F)cc3)[nH]c2n1 [Example 421, 1-(4-(2-amino-8-(4-fluorophenyl)-9H-purin-6-yl)-1,4-diazepan-1-yl)-2-(4-chlorophenoxy)ethanone] | 3710 nM
